Converted amounts (≈) assume the structure as drawn. Starred links: 1 amine or outer side, 2 acyl side, 3 side chain; linkers in the order of their positions; H or OH if unused. Non-standard residues stand in square brackets, D forms with d. Residues, ends and D or L forms follow the SMILES beside them. Groups on a side chain read outwards from the residue. Primed or numbered codes have the meaning given here. ξ: configuration not given here. *: point of attachment. γGlu = O=C(O)[C@H](CCC(=O)[*:2])N[*:1]; αMeF = C[C@](N)(Cc1ccccc1)C(=O)O; ξαMeF = CC(N)(Cc1ccccc1)C(=O)O; αMeK = C[C@](N)(CCCCN)C(=O)O; Lauroyl = CCCCCCCCCCCC(=O)*; ξαMeK = CC(N)(CCCCN)C(=O)O; PEG2′ = not defined here; ξαMeS = CC(N)(CO)C(=O)O; AEEA = NCCOCCOCC(=O)O; Aib = CC(C)(N)C(=O)O
Legend:
Caco-2 cells = assay: Caco-2 study, Permeability (%) of lipidated peptides (Example 3); type: in vitro ADME, human; conditions: 0.1 mg/mL peptide
Excerpt: The Caco-2 cell line is a continuous cell line of heterogeneous human epithelial colorectal adenocarcinoma cells, which when cultured under specific conditions, become differentiated and polarized such that their phenotype, morphologically and functionally, resembles the enterocytes lining the small intestine. Caco-2 cells express tight junctions, microvilli, and a number of enzymes and transporters that are characteristic of such enterocytes. Caco-2 cells are most commonly used as a tight junction monolayer that provides a physical and biochemical barrier to the passage of drugs and thus serves as an in vitro model of the human small intestinal mucosa to predict the absorption of orally administered drugs. Caco-2 permeability assays were performed by Cyprotex US, LLC (MA, USA) to assess the efficacy of different permeation enhancers. Caco-2 cells were grown on Transwell filters until a transepithelial electric resistance of ˜1000 ohms/cm^2 was achieved. The cells were incubated for three hours with media containing test samples on the apical (top) side of the cell layer, and with blank media on the basolateral (lower) side of the cell layer. Media from the apical and basolateral sides was collected separately after three hours and evaluated for the amount of peptide present on each side. Table 2 gives the permeability coefficient (Papp) of the various test samples, which include the SEQ ID NO:3 GLP-1 peptide in the presence of different excipients.
A following Caco-2 study was performed to evaluate the permeability of different peptides in the presence of various permeation enhancers. Permeability (%) was calculated by dividing the cumulative amount of molecules transported with the original loading amount. Concentrations of peptides in starting sample and apical and basal solutions after incubation for pre-determined periods were analyzed by HPLC. Sodium chenodeoxycholate at 25 mg/mL effected the highest permeability of each tested peptide (Table 4).

[1] = Canine site of absorption study, IntelliCap, SEQ ID NO:5 solution formulations (Example 11); type: in vivo, Beagle dogs; conditions: for bioavailability / AUC(0-t) / Cmax / Tmax: dog; for bioavailability: plasma; for AUC(0-t) / Cmax / Tmax: in vivo
Excerpt: The IntelliCap® system, an electronic oral drug delivery and monitoring device, was used to determine regional absorption for solution formulations. In the form of a capsule, the IntelliCap® incorporates a microprocessor, battery, pH sensor, temperature sensor, radio frequency (RF) wireless transceiver, fluid pump, and drug reservoir. The IntelliCap® system can determine the drug's position in the gastrointestinal (GI) tract by a pH monitoring sensor in the capsule, thereby eliminating the need for in vivo imaging. This system was employed to assess the site of absorption of GLP-1 peptide analogs in the GI tract following oral delivery to canines (Beagle dogs). Solution formulations without permeation enhancer excipients were used as intravenous (IV) and subcutaneous (SC) controls in the study. In brief, solution formulations were prepared and transferred to the IntelliCap® capsule which was dosed to canines, wherein the formulation was released at a specific site in the GI tract.
An additional site of absorption study was performed to evaluate the best site of absorption of the SEQ ID NO:5 GLP-1 peptide analog solution formulations after oral administration of IntelliCap capsules to canines (Beagle dogs). Delivery of the SEQ ID NO:5 peptide to the proximal small bowel (after pylorus passage), distal small bowel (before ileocecal passage), and proximal colon (after ileocecal passage) were studied.

physchem = assay: physchem
Excerpt: A known amount of the permeation enhancer, the peptide, or both were combined with increasing amounts of buffer until the permeation enhancer and/or the peptide were completely solubilized.

[2] = 5.0 mg/mL Sodium Chenodeoxycholate
[3] = 25 mg/mL Sodium Chenodeoxycholate
[4] = Intravenous, 0.03 mg/kg, 0.3 mg/mL peptide in 50 mM Tris, 150 mM Mannitol, 0.02% PS80, pH 8.0
[5] = IntelliCap, Distal small bowel, 0.81 mg/kg, 12 mg/mL peptide, 25 mg/mL Na CDC, 12.5 mg/mL PG, pH 8.0
[6] = IntelliCap, Proximal colon, 0.85 mg/kg, 12 mg/mL peptide, 25 mg/mL Na CDC, 12.5 mg/mL PG, pH 8.0
[7] = IntelliCap, Proximal small bowel, 0.86 mg/kg, 12 mg/mL peptide, 25 mg/mL Na CDC, 12.5 mg/mL PG, pH 8.0
[8] = sc, Subcutaneous, 0.03 mg/kg, 0.3 mg/mL peptide in 50 mM Tris, 150 mM Mannitol, 0.02% PS80, pH 8.0

## CC[C@H](C)[C@H](NC(=O)[C@H](Cc1ccccc1)NC(=O)[C@H](CCC(=O)O)NC(=O)[C@H](CCCCNC(=O)COCCOCCNC(=O)COCCOCCNC(=O)CC[C@H](NC(=O)CCCCCCCCCCCCCCCCC(=O)O)C(=O)O)NC(=O)[C@H](C)NC(=O)[C@H](C)NC(=O)[C@H](CCC(=O)O)NC(=O)CNC(=O)[C@H](CCC(=O)O)NC(=O)[C@H](CC(C)C)NC(=O)C(C)(Cc1ccccc1)NC(=O)[C@H](CO)NC(=O)C(C)(CO)NC(=O)[C@@H](NC(=O)[C@H](CC(=O)O)NC(=O)[C@H](CO)NC(=O)[C@@H](NC(=O)C(C)(Cc1ccccc1)NC(=O)[C@H](CO)NC(=O)CNC(=O)[C@H](CCC(=O)O)NC(=O)C(C)(C)NC(=O)[C@@H](N)Cc1c[nH]cn1)[C@@H](C)O)C(C)C)C(=O)N[C@@H](C)C(=O)NC(C)(Cc1ccccc1)C(=O)N[C@H](C(=O)N[C@H](C(=O)NC(C)(CCCCN)C(=O)NCC(=O)NCC(N)=O)C(C)C)C(C)C (stereo partly drawn) [SEQ ID NO: 4, Free-H-[AIB]-EGS-[αMePhe]-TSDV-[αMeSer]-S-[αMePhe]-LEGEAAK[(PEG2)2-γE-Stearate]-EFIA-[αMePhe]-VV-[αMeLys]-GG-amide]
Caco-2 cells; [2]
  Permeability (%): 0%
Caco-2 cells; [3]
  Permeability (%): 14.3%

## CCCCCCCCCCCC(=O)N[C@@H](CCC(=O)NCCOCCOCC(=O)NCCOCCOCC(=O)NCCCC[C@H](NC(=O)[C@H](C)NC(=O)[C@@H](NC(=O)[C@H](Cc1ccccc1)NC(=O)[C@H](CCC(=O)O)NC(=O)C(C)(CCCCN)NC(=O)[C@H](C)NC(=O)[C@H](C)NC(=O)[C@H](CCC(=O)O)NC(=O)CNC(=O)[C@H](CCC(=O)O)NC(=O)[C@H](CCCCNC(=O)COCCOCCNC(=O)COCCOCCNC(=O)CC[C@H](NC(=O)CCCCCCCCCCC)C(=O)O)NC(=O)[C@H](Cc1ccc(O)cc1)NC(=O)[C@H](CO)NC(=O)C(C)(CO)NC(=O)[C@@H](NC(=O)[C@H](CC(=O)O)NC(=O)[C@H](CO)NC(=O)[C@@H](NC(=O)C(C)(Cc1ccccc1)NC(=O)[C@H](CO)NC(=O)CNC(=O)[C@H](CCC(=O)O)NC(=O)C(C)(C)NC(=O)[C@@H](N)Cc1c[nH]cn1)[C@@H](C)O)C(C)C)[C@@H](C)CC)C(=O)N[C@H](C(=O)N[C@H](C(=O)N[C@@H](CCC(=O)O)C(=O)NCC(=O)NCC(N)=O)C(C)C)C(C)C)C(=O)O (some centres unmarked) [SEQ ID NO: 9, Free-H-[AIB]-EGS-[αMePhe]-TSDV-[αMeSer]-SYK[(PEG2)2-γE-Lauroyl]-EGEAA-[αMeLys]-EFIAK[(PEG2)2-γE-Lauroyl]-VVEGG-amide] (H-H[Aib]EGS[ξαMeF]TSDV[ξαMeS]SYK([AEEA-AEEA-γGlu-Lauroyl])EGEAA[ξαMeK]EFIAK([AEEA-AEEA-γGlu-Lauroyl])VVEGG-NH2)
Caco-2 cells; [2]
  Permeability (%): 3.1%
Caco-2 cells; [3]
  Permeability (%): 13.9%

## CCCCCCCCCCCC(=O)N[C@@H](CCC(=O)NCCOCCOCC(=O)NCCOCCOCC(=O)NCCCC[C@H](NC(=O)[C@H](C)NC(=O)[C@@H](NC(=O)[C@H](Cc1ccccc1)NC(=O)[C@H](CCC(=O)O)NC(=O)C(C)(CCCCN)NC(=O)[C@H](C)NC(=O)[C@H](C)NC(=O)[C@H](CCC(=O)O)NC(=O)CNC(=O)[C@H](CCC(=O)O)NC(=O)[C@H](CC(C)C)NC(=O)[C@H](Cc1ccc(O)cc1)NC(=O)[C@H](CCCCNC(=O)COCCOCCNC(=O)COCCOCCNC(=O)CC[C@H](NC(=O)CCCCCCCCCCC)C(=O)O)NC(=O)[C@H](CO)NC(=O)[C@@H](NC(=O)[C@H](CC(=O)O)NC(=O)[C@H](CO)NC(=O)[C@@H](NC(=O)C(C)(Cc1ccccc1)NC(=O)[C@H](CO)NC(=O)CNC(=O)[C@H](CCC(=O)O)NC(=O)C(C)(C)NC(=O)[C@@H](N)Cc1c[nH]cn1)[C@@H](C)O)C(C)C)[C@@H](C)CC)C(=O)N[C@H](C(=O)N[C@H](C(=O)N[C@@H](CCC(=O)O)C(=O)NCC(=O)NCC(N)=O)C(C)C)C(C)C)C(=O)O (some centres unmarked) [SEQ ID NO: 5, Free-H-[AIB]-EGS-[αMePhe]-TSDVSK[(PEG2)2-γE-Lauroyl]-YLEGEAA-[αMeLys]-EFIAK[(PEG2)2-γE-Lauroyl]-VVEGG-amide]
Caco-2 cells; [2]
  Permeability (%): 3.2%
Caco-2 cells; [3]
  Permeability (%): 10.4%
[1]; Beagle, po, IntelliCap, Distal small bowel, 0.81 mg/kg, 12 mg/mL peptide, 25 mg/mL Na CDC, 12.5 mg/mL PG, pH 8.0
  bioavailability: 0.3%
[1]; Beagle, po, IntelliCap, Proximal colon, 0.85 mg/kg, 12 mg/mL peptide, 25 mg/mL Na CDC, 12.5 mg/mL PG, pH 8.0
  bioavailability: 2.6%
[1]; Beagle, po, IntelliCap, Proximal small bowel, 0.86 mg/kg, 12 mg/mL peptide, 25 mg/mL Na CDC, 12.5 mg/mL PG, pH 8.0
  bioavailability: 0.5%
[1]; [4]
  F: 100%
  AUC(0-t): 2000 ng·h/mL
  Cmax: 449 ng/mL
  Tmax: 15 min
[1]; beagle, sc, Subcutaneous, 0.03 mg/kg, 0.3 mg/mL peptide in 50 mM Tris, 150 mM Mannitol, 0.02% PS80, pH 8.0
  bioavailability: 87%
[1]; [5]
  AUC(0-t): 166 ng·h/mL
  Cmax: 51 ng/mL
  Tmax: 15 min
[1]; [6]
  AUC(0-t): 1500 ng·h/mL
  Cmax: 301 ng/mL
  Tmax: 15 min
[1]; [7]
  AUC(0-t): 297 ng·h/mL
  Cmax: 75 ng/mL
  Tmax: 15 min
[1]; [8]
  AUC(0-t): 1770 ng·h/mL
  Cmax: 144 ng/mL
  Tmax: 240 min

## C[C@H](CCC(=O)[O-])[C@H]1CC[C@H]2[C@@H]3[C@H](O)C[C@@H]4C[C@H](O)CC[C@]4(C)[C@H]3CC[C@]12C.[Na+] [Sodium Chenodeoxycholate]
physchem; pH 5.5
  solubility: >200000 µg/mL

## Free-H-[AIB]-EGS-[αMePhe]-TSDVSK[(PEG2)2-γE-Lauroyl]-YLEGEAA-[αMeLys]-EFIAWK[(PEG2)2-γE-Lauroyl]-VEGG-amide (H-H[Aib]EGS[αMeF]TSDVSK([PEG2′-PEG2′-γGlu-Lauroyl])YLEGEAA[αMeK]EFIAWK([PEG2′-PEG2′-γGlu-Lauroyl])VEGG-NH2) [SEQ ID NO: 7]
Caco-2 cells; [2]
  Permeability (%): 2.1%
Caco-2 cells; [3]
  Permeability (%): 10.3%

## CCCOC(=O)c1cc(O)c(O)c(O)c1 [Propyl Gallate]
physchem; pH 5, aqueous buffer, thermodynamic from solid
  solubility: 3000 µg/mL (≈ 14.1 mM)
physchem; pH 6, aqueous buffer, thermodynamic from solid
  solubility: 3000 µg/mL (≈ 14.1 mM)
physchem; pH 7
  solubility: 3300 µg/mL (≈ 15.6 mM)
physchem; pH 7.5
  solubility as a function of pH (in words): low solubility at pH 7.5 and above
physchem; pH 7.5, aqueous buffer, thermodynamic from solid
  solubility: < 250 µg/mL
physchem; pH 8, aqueous buffer, thermodynamic from solid
  solubility: < 250 µg/mL
physchem; pH 9, aqueous buffer, thermodynamic from solid
  solubility: < 250 µg/mL

## CCCCCCCCCCCC(=O)N[C@@H](CCC(=O)NCCOCCOCC(=O)NCCOCCOCC(=O)NCCCC[C@H](NC(=O)[C@H](CC(=O)O)NC(=O)[C@H](CO)NC(=O)[C@@H](NC(=O)C(C)(Cc1ccccc1)NC(=O)[C@H](CO)NC(=O)CNC(=O)[C@H](CCC(=O)O)NC(=O)C(C)(C)NC(=O)[C@@H](N)Cc1c[nH]cn1)[C@@H](C)O)C(=O)N[C@@H](CO)C(=O)N[C@@H](CO)C(=O)N[C@@H](Cc1ccc(O)cc1)C(=O)N[C@@H](CC(C)C)C(=O)N[C@@H](CCC(=O)O)C(=O)NCC(=O)N[C@@H](CCC(=O)O)C(=O)N[C@@H](C)C(=O)N[C@@H](C)C(=O)NC(C)(CCCCN)C(=O)N[C@@H](CCC(=O)O)C(=O)N[C@@H](Cc1ccccc1)C(=O)N[C@H](C(=O)N[C@@H](CCCCNC(=O)COCCOCCNC(=O)COCCOCCNC(=O)CC[C@H](NC(=O)CCCCCCCCCCC)C(=O)O)C(=O)N[C@@H](Cc1c[nH]c2ccccc12)C(=O)N[C@H](C(=O)N[C@H](C(=O)N[C@@H](CCC(=O)O)C(=O)NCC(=O)NCC(N)=O)C(C)C)C(C)C)[C@@H](C)CC)C(=O)O (some centres unmarked) [SEQ ID NO: 8] (H-H[Aib]EGS[ξαMeF]TSDK([AEEA-AEEA-γGlu-Lauroyl])SSYLEGEAA[ξαMeK]EFIK([AEEA-AEEA-γGlu-Lauroyl])WVVEGG-NH2)
Caco-2 cells; [2]
  Permeability (%): 1.7%
Caco-2 cells; [3]
  Permeability (%): 11.6%
